{
  "source": "patent US9879043B1",
  "about": "“Synthesis of non-natural cofactor analogs of S-adenosyl-L-methionine using methionine adenosyltransferase” (University of Kentucky Research Foundation, priority 2013, dated 2018)",
  "type_in_all_cases": "biochemical",
  "key": {"[1]": {"biological_target": "T1, Sulfolobus solfataricus MAT (sMAT) (Saccharolobus solfataricus, UniProt Q980S9)", "T1 sequence (Q980S9 1-404)": "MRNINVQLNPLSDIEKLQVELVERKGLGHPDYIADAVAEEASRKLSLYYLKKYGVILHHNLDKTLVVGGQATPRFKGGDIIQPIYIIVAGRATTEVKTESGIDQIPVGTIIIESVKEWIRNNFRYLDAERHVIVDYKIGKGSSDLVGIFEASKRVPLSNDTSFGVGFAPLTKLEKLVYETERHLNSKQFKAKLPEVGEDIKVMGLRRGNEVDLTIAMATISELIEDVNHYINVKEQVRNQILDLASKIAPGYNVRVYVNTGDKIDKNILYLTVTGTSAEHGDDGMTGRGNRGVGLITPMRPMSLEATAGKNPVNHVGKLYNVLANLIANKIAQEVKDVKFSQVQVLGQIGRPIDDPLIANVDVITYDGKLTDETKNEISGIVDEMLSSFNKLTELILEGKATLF", "experiment": "Kinetic measurements of sMAT reactions", "procedure": "Kinetic Measurements of sMAT Reactions: Pseudo first-order kinetics was assessed in triplicate under saturating ATP (2.5 mM) and variable L-methionine/L-ethionine (0.007, 0.013, 0.033, 0.066, 0.133, 0.333, 0.66, 1.33 mM) and saturating L-methionine/L-ethionine (2.5 mM) and variable ATP (0.013, 0.033, 0.066, 0.133, 0.333, 0.66, 1.33 mM) concentrations. Reactions were performed in buffer containing 25 mM Tris pH 8.0, 40 mM KCl and 5 mM MgCl2, and 0.5 μg purified sMAT was added and incubated at 37° C. or 65° C. in a final volume of 20 μL. Reaction products were analyzed using RP-HPLC method above and product quantification was carried out using standard curve generated by commercial SAM. The kinetic curves were fit to the Michaelis-Menton equation using Prism software."}, "[2]": {"biological_target": "human MAT I catalytic subunit alpha (hMAT1A) (Homo sapiens, UniProt Q00266)", "experiment": "MAT assay, turnover of S/Se-Met analogs to S(Se)AM analogs (RP-HPLC end point)", "conditions": "2 mM Met analog, 1 mM ATP, 5 μM MAT, pH 8, 4 h, 37° C.; average of two assays"}, "[3]": {"biological_target": "human MAT II catalytic alpha and regulatory beta subunit (hMAT2) (Homo sapiens, UniProt P31153)", "experiment": "MAT assay, turnover of S/Se-Met analogs to S(Se)AM analogs (RP-HPLC end point)", "conditions": "2 mM Met analog, 1 mM ATP, 5 μM MAT, pH 8, 4 h, 37° C.; average of two assays"}, "[4]": {"biological_target": "human MAT II catalytic alpha subunit alone (hMAT2A) (Homo sapiens, UniProt P31153)", "experiment": "MAT assay, turnover of S/Se-Met analogs to S(Se)AM analogs (RP-HPLC end point)", "conditions": "2 mM Met analog, 1 mM ATP, 5 μM MAT, pH 8, 4 h, 37° C., average of two assays"}, "[5]": {"biological_target": "Escherichia coli MAT (eMAT) (Escherichia coli, UniProt P0A817)", "experiment": "MAT assay, turnover of S/Se-Met analogs to S(Se)AM analogs (RP-HPLC end point)", "conditions": "2 mM Met analog, 1 mM ATP, 5 μM MAT, pH 8, 4 h, 37° C., average of two assays"}},
  "data": [
    {"smiles": "CCSCC[C@H](N)C(=O)O", "note": "[compound 3, (2S)-2-amino-4-(ethylsulfanyl)butanoic acid]", "values": [
      {"measurement": "kcat", "setting": "[1]; 37° C. or 65° C., L-methionine versus L-ethionine", "result": "similar"},
      {"measurement": "Km", "setting": "[1]; compared to native substrate L-methionine", "result": "higher Km values"},
      {"measurement": "Percentage Turn-over hMAT1A", "setting": "[2]", "result": 75, "unit": "%"},
      {"measurement": "Percentage Turn-over hMAT2", "setting": "[3]", "result": 88, "unit": "%"},
      {"measurement": "Percentage Turn-over hMAT2A", "setting": "[4]", "result": 90, "unit": "%"},
      {"measurement": "Percentage Turn-over hMAT2A", "setting": "[4]; listed as ethionine", "result": "~100", "unit": "%"},
      {"measurement": "Percentage Turn-over eMAT", "setting": "[5]", "result": 8, "unit": "%"},
      {"measurement": "Percentage Turn-over eMAT", "setting": "[5]; listed as ethionine", "result": 10, "unit": "%"}
    ]}
  ]
}
